Drawing on paper PMC6934184, “Selective DNA-PKcs inhibition extends the therapeutic index of localized radiotherapy and chemotherapy” (The Journal of Clinical Investigation, 2019), this text covers inhibition for one compound.

Molecules are shown by their SMILES.

The test concerns the target T1, KIT D820E (Homo sapiens, UniProt P10721, D820E).
T1 construct: purchased Thermo Fisher Scientific (Life Technologies) SelectScreen
The test is described as follows: SelectScreen LanthaScreen. The class given is binding. The settings on record: read-out: % displacement. The method in brief:
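NU5455 was profiled across the SelectScreen Broad panel of kinase activity and binding assays. Z'LYTE reactions such as CSF1R ran at apparent Km ATP, while the Adapta CAMK1 assay used ATP listed as 10. Values are given as percent.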

T1 sequence (P10721 26-976 D820E): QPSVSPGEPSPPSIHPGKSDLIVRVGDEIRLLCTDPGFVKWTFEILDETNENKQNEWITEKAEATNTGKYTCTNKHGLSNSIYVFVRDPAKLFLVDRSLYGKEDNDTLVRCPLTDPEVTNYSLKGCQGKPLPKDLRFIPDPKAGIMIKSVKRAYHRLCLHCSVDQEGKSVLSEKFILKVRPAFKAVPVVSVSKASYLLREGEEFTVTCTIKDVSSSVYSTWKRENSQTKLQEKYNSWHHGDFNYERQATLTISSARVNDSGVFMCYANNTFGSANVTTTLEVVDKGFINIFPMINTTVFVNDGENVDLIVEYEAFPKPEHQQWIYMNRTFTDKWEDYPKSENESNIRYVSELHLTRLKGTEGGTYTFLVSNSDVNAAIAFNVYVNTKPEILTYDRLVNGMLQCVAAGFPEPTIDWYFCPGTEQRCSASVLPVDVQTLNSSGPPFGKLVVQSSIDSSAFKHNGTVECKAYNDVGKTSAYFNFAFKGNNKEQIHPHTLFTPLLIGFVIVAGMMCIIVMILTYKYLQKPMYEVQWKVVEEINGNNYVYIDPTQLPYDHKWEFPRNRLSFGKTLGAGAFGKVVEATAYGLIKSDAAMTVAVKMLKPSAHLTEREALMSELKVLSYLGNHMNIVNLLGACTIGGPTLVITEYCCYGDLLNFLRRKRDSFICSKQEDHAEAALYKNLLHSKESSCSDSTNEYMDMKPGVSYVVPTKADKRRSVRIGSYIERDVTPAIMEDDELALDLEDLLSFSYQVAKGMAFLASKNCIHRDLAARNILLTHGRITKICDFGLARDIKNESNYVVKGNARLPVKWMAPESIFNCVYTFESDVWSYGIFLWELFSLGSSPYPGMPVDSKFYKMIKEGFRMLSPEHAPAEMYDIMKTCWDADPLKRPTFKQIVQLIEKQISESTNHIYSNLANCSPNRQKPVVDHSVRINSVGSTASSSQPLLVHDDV

As to `CN(C(=O)CN1CCOCC1)c1ccc2sc3c(-c4cccc5c(=O)cc(N6CC7CCC(C6)O7)oc45)cccc3c2c1` [NU5455], the inhibition at 1 µM turned out to be 1.3%.
